Common to all, as to format: cell-based
The subject of one assay is tyrosinase. The assay can be described thus: In situ tyrosinase activity in ex vivo human skin organ culture. Conditions: after 3 days. Here is the method:
(§1) Samples of human abdominal, temporal, and occipital skin were obtained with written patient consent and under ethical approval from healthy adult human subjects during elective plastic surgery performed for cosmetic reasons. Full-thickness human skin samples were prepared as 4-6 mm punches, placed on filter paper, and cultured at the air-liquid interphase under serum-free conditions in William's E medium supplemented only with insulin, hydrocortisone and L-glutamine, as described previously. […]
(§2) Images were then obtained with a digital microscope (Keyence). Quantitative histomorphometric analysis was performed by assessing the relative intensity and the area of melanin stain in standardized reference areas with ImageJ (NIH; Bethesda, MD, USA). Briefly, for each parameter evaluated, multiple non-consecutive skin sections (at least 280 μm apart from each other) per punch biopsy were stained. Two skin punch biopsies were analyzed per experimental group unless indicated otherwise. The melanin content was then calculated based on the product of the fraction of area occupied by melanin and the mean shade of gray of the melanin, as described in detail elsewhere. […]

The subject of assay [1] is human skin organ culture. The assay can be described thus: Epidermal melanin by Fontana Masson histochemistry in ex vivo human skin organ culture. Here is the method:
Samples of human abdominal, temporal, and occipital skin were obtained with written patient consent and under ethical approval from healthy adult human subjects during elective plastic surgery performed for cosmetic reasons. Full-thickness human skin samples were prepared as 4-6 mm punches, placed on filter paper, and cultured at the air-liquid interphase under serum-free conditions in William's E medium supplemented only with insulin, hydrocortisone and L-glutamine, as described previously.
For topical application of 2,5-dimethylpyrazine (DMP) (Sigma), a TRPM5 activator, a stock was prepared in ethanol and dissolved at 37° C. at a final concentration of 12.5 mM in a 50% v/v solution of Isopropanol in PBS containing 1 g/mL of Polyethylene glycol 6000. For topical application of triphenylphosphine oxide (TPPO) (Sigma), and TRPM5 inhibitor, a stock was prepared in ethanol and dissolved at 37° C. at a final concentration of 1.5 mM in a 50% v/v solution of Isopropanol in PBS containing 1 g/mL of Polyethylene glycol 6000. […]
as §2
For Fontana Masson stain, ethanol/acetic acid-fixed human skin/HF frozen sections were rinsed in two and three washes of Tris-buffered saline and distilled water, respectively. […] Image acquisition and quantitative histomorphometric analysis were performed similar to as described for the Warthin-Starry technique.

Assay [2] has as its system human skin organ culture. The assay can be described thus: Epidermal melanin by Warthin-Starry histochemistry in ex vivo human skin organ culture. The conditions noted are these: topical DMP 12.5 mM. The protocol:
as §1, §2

Another assay concerns gp100. The assay can be described thus: gp100-specific immunoreactivity in ex vivo human skin organ culture. The conditions noted are these: after 3 days. The protocol:
as §1, §2

Setting [3] is: topical DMP 12.5 mM, compared to vehicle.
[4] abbreviates: TPPO 1.5 mM combined with DMP 12.5 mM, topical.

On to `Cc1cnc(C)cn1` [DMP, 2,5-dimethylpyrazine], for which, in the assay with tyrosinase (setting [3]), the “intensity level of tyrosinase activity in the basal epidermal layers” value is listed as “markedly increases”. Besides, the “melanin content in the basal layer and in the suprabasal layers (Fontana-Masson technique)” value in the assay with human skin organ culture [1] (topical DMP 12.5 mM, 3 days) was “increased”. Besides, in the assay with human skin organ culture [1] (topical DMP 12.5 mM, after 3 days, compared to vehicle), the “epidermal melanin content (Fontana-Masson technique)” value is recorded as “markedly increases”. Moreover, in the assay with human skin organ culture [2] (3 days), the “melanin content in the basal layer and in the suprabasal layers (Warthin-Starry technique)” value was “increased”. In addition, in the assay on human skin organ culture [2] (after 3 days, compared to vehicle), the “epidermal melanin content (Warthin-Starry technique)” value was “markedly increases”. The “intensity level of gp100-specific IR in the basal epidermal layers” value in the assay on gp100 (setting [3]) is on record as “markedly increases”.

Consider `O=P(c1ccccc1)(c1ccccc1)c1ccccc1` [TPPO, triphenylphosphine oxide], for which, in the assay on tyrosinase (setting [4]), the “effect on the DMP-induced increase of tyrosinase activity in the basal epidermal layers” value is given as “prevented the effect”. Further, the “effect on the DMP-induced increase of epidermal melanin content (Fontana-Masson technique)” value in the assay with human skin organ culture [1] (TPPO 1.5 mM combined with DMP 12.5 mM, topical, after 3 days) is on record as “prevented the effect”. In addition, the “effect on the DMP-induced increase of gp100-specific IR in the basal epidermal layers” value in the assay with gp100 (setting [4]) is “prevented the effect”.

The record behind these values is patent US20250143995A1, “ACTIVE AGENT MODULATING THE ACTIVITY OF AN ION CHANNEL FOR USE IN REGULATION OF SKIN PIGMENTATION” (Cutaneon - Skin & Hair Innovations GmbH, priority 2022, published 2025).
